Test results from US8283322B2, “Formulations for nonsurgical exogenous crosslink therapy” (Orthopeutics, LP, priority 2008, dated 2012).

How the values were obtained:
[1] = tested on: lumbar intervertebral joints (posterior annulus); assay: Indentation testing (stress relaxation, hardness) with compression/flexion fatigue cycling; conditions: soaking the calf disc tissue in 0.33% concentration of genipin
From the text: Thirty-three lumbar intervertebral joints were obtained from ten four-month-old calf spines. The intervertebral joints were arbitrarily divided into 3 groups: untreated controls-12 specimens, Genipin treatment 1 (G1)-6 specimens, and Genipin treatment 2 (G2)-13 specimens. The G1 treatment involved 72 hrs of soaking the whole specimen in PBS with a 0.033% concentration of Genipin. Similarly, the G2 treatment involved 72 hrs of soaking whole specimens in PBS with 0.33% concentration of Genipin. 0.33% Genipin in PBS is produced by dilution of 50 ml of 10×. PBS (Phosphate Buffered Saline) with distilled water by a factor of 10 to give 500 ml (500 gm) of PBS and mixing in 1.65 grams of genipin to produce the 0.33% (wt %, gm/gm) solution. […] Some controls were not subjected to soaking prior to fatigue testing. Others were soaked in a saline solution for 72 hrs. Water mass loss experiments were conducted to establish the equivalency of outer annulus hydration between the genipin soaked and 0.9% saline soaked controls. The selection of treatments was randomized by spine and level. […]
Following initial indentation testing, the specimen was loaded repetitively in flexion-compression at 200 N for 3000 cycles at a rate of 0.25 Hz. […] Several statistical measures were calculated to evaluate the significance of the results. […]

[2] = tested on: homogenized annulus tissue; assay: Crosslinking of annulus tissue quantified by hydroxyproline release upon collagenase digestion
Method: Increasing concentrations of protein crosslinkers were added to homogenized annulus tissue and incubated for either 1 hr (EDC, GP, MG, PA and GA), 2 hrs (TG) or 6 hrs (DT and LT). Crosslinking was quantified by determining the amount of hydroxyproline (HYP) released from the tissue by collagenase digestion.
Homogenized annulus tissue was treated with sub-saturating concentrations of various crosslinkers at varying pH and incubated for either 1 hr (EDC, GP, MG, PA and GA), 2 hrs (TG) or 6 hrs (LT). Crosslinking was quantified by determining the amount of hydroxyproline (HYP) released from the tissue by collagenase digestion.
In order to determine the effective concentration range for various crosslinking reagents we incubated samples of annulus tissue in increasing concentrations of either genipin (GP), methylglyoxal (MG), proanthrocyanidin (PA), L-threose (LT), D-threose (DT), dimethylaminopropyl) carbodiimide hydrochloride (EDC) or transglutaminase (TG). Crosslinking efficiency was measured indirectly by monitoring the release of peptides containing hydroxyproline upon subsequent digestion with collagenase. Glutaraldehyde (GA), a commonly used, but highly toxic protein crosslinker was used as a positive control.
To test this hypothesis, the inventors subjected calf annulus fibrosus tissue to crosslinking with sub-saturating levels of our reagents at varying pH. In order to maintain optimal buffering capacity at each pH, different buffers were selected for each point.

[3] = physchem; type: physicochemical; conditions: for half-life: buffer
From the text: In the case of the crosslinking agent genipin (GP), using a quantitative HPLC assay, the inventors have shown that the agent is unstable in aqueous solution. The rate of degradation can be very rapid and is dependent on pH. […] In all cases this instability is not suitable for long term storage of a genipin-containing crosslinking agent at ambient temperature. […] The inventors have also shown that GP is stable as a powder for at least 1 year. These observations have consequences for the manufacture and/or final form of a crosslinking reagent containing GP, i.e., the GP would have to be stored either in powdered form or in a suitable non-aqueous, water-miscible solvent. The solvent could be, but is not limited to, ethanol, methanol, propanol, acetonitrile or dimethyl sulfoxide.

## COC(=O)C1=CO[C@@H](O)[C@@H]2C(CO)=CC[C@H]12 [Genipin, genipin]
[1]
  reduction in viscoelastic degradation: More than a three-fold reduction
[2]; 100 mM EPPS or 100 mM Tris, GP at pH 9
  effect of buffer (EPPS vs Tris) on crosslinking: more effective in EPPS buffer than in Tris
[2]; Tris buffer pH 8, increasing concentrations of sodium phosphate
  effect of phosphate on crosslinking: dose-dependent enhancement
[2]; optimized pH for crosslinking, Table 5
  pH: 8-9
[2]; saturating crosslinker concentration, Table 5
  [Saturating]: 5 to 10 mM
[2]; sub-saturating crosslinker, pH 4-9 with a different buffer at each pH (FIG. 2, FIG. 3)
  pH dependence of crosslinking: function better in disc tissue at the higher pH levels
[3]
  degradation in non-aqueous solvents: no GP degradation was detected
  stability as a powder: at least 1 year
[3]; pH 4
  half-life: 214 h
[3]; pH 5
  half-life: 219 h
[3]; pH 6
  half-life: 135 h
[3]; pH 7
  half-life: 60 h
[3]; pH 8
  half-life: 18 h
[3]; pH 9
  half-life: 2.8 h
